From patent US9840532B2, “5′-substituted nucleoside compounds” (Eli Lilly and Company, priority 2015, dated 2017)

How the values were obtained:
[1] = tested on: A375 cells; assay: Protocol Proliferation 7-day (CELL TITER-GLO); type: cell-based; details: Homo sapiens, A-375, 168 h, 7 days, Mean ± SEM
Method: The purpose of this assay is to measure the ability of test compounds to inhibit proliferation of cancer cells.
On day 1, plate A375 cells (ATCC, DMEM high glucose/10% Hi FBS) at 250 cells/well (100 μL/well) in a 96-well assay plate (BD Falcon 35-3219). Incubate the plates in a 37° C. incubator (5% CO2) for 18-24 hr. On day 2, prepare and serially dilute test compounds in medium (1:2 10-point serial dilution) from compound stock solutions (10 mM in 100% DMSO). Add 10 μL of serial diluted test compounds to cell plates (0.2% DMSO final concentration). Add 10 μL of reference compound (Example 1) to column 1 of cell plates (20 μM final, 0.2% DMSO). Incubate cell plates at 37° C./5% CO2 for 7 days. On day nine, thaw the CELL TITER-GLO® (Promega #G7571) buffer and equilibrate to room temperature prior to use. Also, equilibrate the lyophilized CELL TITER-GLO® substrate to room temperature prior to use. Transfer CELL TITER-GLO® buffer to an amber substrate bottle to reconstitute the lyophilized enzyme/substrate mixture to form the CELL TITER-GLO® reagent. Equilibrate the cell plate(s) to room temperature for […] Gently remove media in cell plates by flicking and blotting on a stack of paper towels. Add CELL TITER-GLO® reagent (25 μL) to each well. Incubate plates for […] at room temperature before reading. Measure luminescence using PERKIN-ELMER® ENVISION® Multi-label Plate Reader. Analyze this luminescence data by a 4-parameter curve fit using Activity Base, to yield cell proliferation IC50 values.

[2] = tested on: PRMT5-dependent alternative splicing of MDM4 in A375 melanoma cells; assay: MDM4 Exon5/6 qPCR Assay in A375 Tumor Cells; type: cell-based; details: Homo sapiens, A-375, 72 hr, Mean ± SEM
Method: Culture A375 tumor cells (ATCC), a melanoma cancer cell line, to 70%-90% confluence in T150 flasks with the growth medium (DMEM; HYCLONE™ #SH30022 with 10% FBS; GIBCO® 10082-147 or equivalent). Treat the cells with standard trypsin/EDTA treatment for 3 min and aspirate and wash with PBS to release the adherent cells from the culture flask. Seed the cells into a 96 well plate (Costar 3596) at 5000/well in growth medium (90 μL). Incubate the plate overnight at 37° C. and 5% CO2 and treat the cells with test compound at serial dilutions ([…], final DMSO addition of 0.2% yield) for 72 hr. Measure activity relative to maximum (2.0 μM of Example 2 and minimum (0.2% DMSO) controls.
On Day 5 after incubation, remove the medium from the culture plates and wash the cells twice with cold PBS (150 μL/well). Prepare Lysis Working Reagent from the TAQMAN® Gene Expression Cells-to-CT Kit (INVITROGEN™ cat. # AM1729) by dilution of DNAse 1 into Lysis Solution at 1/100. Add Lysis Working Reagent (50 μL/well) to the cell plates, mix well, and incubate at room temperature for 5 min Add kit stop solution (5 μL) to each well, mix the wells, and incubate for 2 min at room temperature. Prepare Reverse Transcriptase Master Mix in the following volume ratios; RT buffer: Nuclease-free water: RT Enzyme at 62.5:31.25:6.25. Add RT mix (48 μL/well) to each well of a 96-well NUNC™ plate (THERMO SCIENTIFIC™ #260860). Add RT mix (20 μL) and each cell lysate sample (5 μL) into a 384 PCR plate (Clear Optical Reaction Plate, cat. #4309849, APPLIED BIOSYSTEMS®) quadrant 1 and add a second addition of RT Mix and cell lysate to quadrant 3. For the RT reaction, seal the plates and then place them in a thermal cycler set at 37° C. for 60 min; 95° C. for 5 min; stop at 4° C. For qPCR, prepare MDM4 exon 5 primers (Life Technologies Hs00967240-ml) and exon 6 primers (Life Technologies Hs00967242-ml) separately in the following volume ratios of RT mix: H2O: exon probe at 10:6:1. Add Exon 5 (17 μL) to odd columns of a 384 PCR plate and add exon 6 (17 μL) to the even columns. Add cDNA (3 μL, from the RT plate) by quadrant stamping to each well of the qPCR plate containing the 17 μL exon primer solution. In this manner, perform qPCR for both exons on cDNAs from a single RT reaction on an individual cell lysate. Seal the plates, spin, and place on a real-time PCR instrument (Life Technologies ViiA7 Real-Time PCR). […]
Retrieve CT data from the real-time PCR reader and perform the following calculations, where “CPD” is the value from compound-treated samples, and “DMSO” is the minimum control sample, using an Excel template: (Exon 6 CT CPD−Exon 6 CT DMSO)−(Exon 5 CT CPD−Exon 5 CT DMSO)=ΔCT 2^(−ΔCT)=Fold Change […]

Row | IC50 [1] | EC50 [2] | SMILES
1 | 10.8 nM | 16.8 nM | Nc1ncnc2c1ccn2[C@@H]1O[C@H]([C@H](O)c2ccc(Cl)cc2)[C@@H](O)[C@H]1O [Example 1, (2R,3R,4S,5R)-2-(4-Aminopyrrolo[2,3-d]pyrimidin-7-yl)-5-[(R)-(4-chlorophenyl)-hydroxy-methyl]tetrahydrofuran-3,4-diol]
2 | 44 nM | 42.4 nM | C[C@@](O)(c1ccc(Cl)cc1)[C@H]1O[C@@H](n2ccc3c(N)ncnc32)[C@H](O)[C@@H]1O [Example 3, (2R,3R,4S,5S)-2-(4-Aminopyrrolo[2,3-d]pyrimidin-7-yl)-5-[(1R)-1-(4-chlorophenyl)-1-hydroxy-ethyl]tetrahydrofuran-3,4-diol]

Row | SMILES | IC50 [1] | EC50 [2]
3 | Nc1ncnc2c1ccn2[C@@H]1O[C@H]([C@H](O)c2ccccc2)[C@@H](O)[C@H]1O [Example 2, (2R,3R,4S,5R)-2-(4-Aminopyrrolo[2,3-d]pyrimidin-7-yl)-5[(R)-hydroxy(phenyl)methyl]tetrahydrofuran-3,4-diol] | 31.5 nM | 36.7 nM
